Source: PMC11201828, “A Novel Dimeric Short Peptide Derived from α-Defensin-Related Rattusin with Improved Antimicrobial and DNA-Binding Activities” (Biomolecules, 2024)
≈ marks a conversion by molar mass, not a printed value. Where two headings read alike, the source gives them in different places. Positions of bridges follow the written chain, without caps; N, C: chain ends. Residues, ends and D or L forms follow the SMILES beside them. Chains are numbered I, II in the order given. No end group written: not given here.

Key:
[1] = test system: Staphylococcus epidermidis; assay type: cell-based; conditions: 24 h
Procedure: (§1) The minimal inhibitory concentrations (MICs) of the peptides were determined following the broth microdilution method recommended by the Clinical and Laboratory Standards Institute (CLSI). Briefly, bacteria in their mid-logarithmic growth phase were diluted in Mueller–Hinton broth (MHB) (Difco, Franklin Lakes, NJ, USA) and aliquoted into a 96-well microtiter plate at a density of 4 × 10^6 CFU/well. The assay included both Gram-negative bacteria (Escherichia coli, Salmonella typhimurium, and Pseudomonas aeruginosa) and Gram-positive bacteria (Bacillus subtilis, Staphylococcus aureus, and Staphylococcus epidermidis), as well as methicillin-resistant Staphylococcus aureus strains (MRSA: CCARM 3089, CCARM 3090, CCARM 3095). The samples were subjected to a two-fold serial dilution before being added to the wells, and the plate was incubated at 37 °C for 24 h. The MIC was defined as the lowest peptide concentration that prevented visible bacterial growth. All experiments were conducted in triplicate and included appropriate growth and sterility controls.

[2] = test system: Staphylococcus aureus; assay type: cell-based; conditions: 24 h
Procedure: as §1

[3] = test system: Salmonella typhimurium; assay type: cell-based; conditions: 24 h
Procedure: as §1

[4] = test system: Bacillus subtilis; assay type: cell-based; conditions: 24 h
Procedure: as §1

[5] = test system: Escherichia coli; assay type: cell-based; conditions: 24 h
Procedure: as §1

[6] = test system: bacterial strains; assay type: cell-based; conditions: strain not given; see Tables 1 and 2
Procedure: as §1

[7] = test system: Pseudomonas aeruginosa; assay type: cell-based; conditions: 24 h
Procedure: as §1

[8] = test system: MRSA CCARM 3090; assay type: cell-based, methicillin-resistant Staphylococcus aureus; conditions: CCARM 3090, 24 h
Procedure: as §1

[9] = test system: MRSA CCARM 3089; assay type: cell-based, methicillin-resistant Staphylococcus aureus; conditions: CCARM 3089, 24 h
Procedure: as §1

[10] = test system: MRSA CCARM 3095; assay type: cell-based, methicillin-resistant Staphylococcus aureus; conditions: CCARM 3095, 24 h
Procedure: as §1

[11] = test system: S. aureus cytoplasmic membrane; assay: Membrane depolarization assay, DiSC3-(5) dye; assay type: cell-based, Staphylococcus aureus; conditions: intact S. aureus; 32 µM F2, 4 µM melittin, 16 µM buforin-2; peptide added after 300 s; Figure 2
Procedure: The cytoplasmic membrane depolarization activity of the peptides was assessed using the membrane-potential-sensitive dye DiSC3-(5), following methodologies previously described in the literature. Staphylococcus aureus was cultured in Luria–Bertani (LB) broth at 37 °C until reaching an optical density (O.D.) at 600 nm of 0.3–0.4, indicative of mid-logarithmic phase growth. The cells were then washed with a buffer containing 20 mM glucose and 5 mM HEPES, and the cell suspension was diluted to an O.D. 600 of 0.05 in the same buffer. Potassium chloride (KCl) was added to achieve a final concentration of 100 mM to equilibrate potassium ion levels. The concentrations used for each peptide in our membrane depolarization assays were based on their respective MICs: 32 µM for F2, 4 µM for Melittin, and 16 µM for Buferin-2.
Fluorescence was monitored using an F-4500 FL fluorescence spectrophotometer (Shimadzu, Kyoto, Japan) with excitation and emission wavelengths set at 622 nm and 670 nm, respectively. Melittin, known for its membrane-disrupting properties, served as a positive control, while buforin-2, which translocates across membranes without causing depolarization, acted as a negative control. Both melittin and buforin-2 were tested at concentrations twice their minimal inhibitory concentration (MIC) levels.

[12] = test system: E. coli ML-35; assay: ONPG hydrolysis assay (inner membrane permeability); assay type: cell-based, Escherichia coli; conditions: 32 µM F2, 4 µM melittin, 16 µM buforin-2, Figure 4
Procedure: The internal membrane permeability was assessed using the ONPG hydrolysis assay, as described previously. E. coli ML-35p, which constitutively expresses cytoplasmic β-galactosidase and periplasmic β-lactamase, is resistant to ampicillin and deficient in lactose permease. E. coli ML-35 was incubated in LB broth containing ampicillin at 37 °C until the optical density (O.D.) at 600 nm reached 1.0. The cells were then washed with a buffer consisting of 97% 1× PBS and 3% LB and diluted to an O.D. 600 of 0.4 in the same buffer. A mixture of 50 μL of serially diluted peptide and 20 μL of dye (ONPG, final concentration 3 mM) was added to 100 μL of the bacterial suspension in a sterilized 96-well plate. Melittin served as a positive control, while buforin-2 was used as a negative control. The hydrolysis of ONPG was measured using a PHOMO Elisa reader (Autobio, Zhengzhou, China) at 405 nm for each time period.

[13] = test system: S. aureus cell membranes; assay: SYTOX Green uptake assay; assay type: cell-based, Staphylococcus aureus; conditions: 32 µM F2, 4 µM melittin, 16 µM buforin-2, Figure 3
Procedure: The membrane permeabilization activity of the peptides was determined using the SYTOX Green uptake assay, as described previously. S. aureus was cultured in LB broth at 37 °C until it reached an optical density (O.D.) at 600 nm of 0.4, indicative of the mid-logarithmic phase. The cells were then washed and diluted to an O.D. 600 of 0.05 using 1× PBS buffer. The dye (SYTOX Green nucleic acid stain) was added to the bacterial suspension at a concentration of […], and the mixture was incubated at 4 °C for 18 h with agitation in the dark. The SYTOX Green-treated bacteria were placed in a quartz cell, where they were simultaneously exposed to the positive control melittin (2× MIC), the negative control buforin-2 (2× MIC), and the F2 dimer (2× MIC). An F-4500 FL fluorescence spectrophotometer (Shimadzu, Kyoto, Japan) was used to monitor fluorescence (excitation 485 nm, emission 520 nm).

[14] = test system: plasmid DNA (pHIS2); assay: DNA-binding gel retardation assay; conditions: plasmid pHIS2 145 μg/mL, 37 °C, 1 h, 1% agarose gel; Figure 5
Procedure: We evaluated the DNA-binding ability of F2 and F2 (C4S) monomeric peptides using gel retardation experiments. The concentration of plasmid DNA (pHIS2) was fixed at 145 μg/mL. The peptide was serially diluted in a binding buffer consisting of 10 mM Tris-HCl (pH 8.0), 5% glucose, 50 μg/mL BSA, 1 mM EDTA, and 20 mM KCl. This solution was then mixed with the DNA and incubated at 37 °C for 1 h. After incubation, the DNA–peptide mixture was stained with DNA gel loading dye. The samples were analyzed using 1% agarose gel electrophoresis in 0.5× TAE buffer. Plasmid bands were detected with a UV illuminator (Bio-Rad, Hercules, CA, USA).

| Compound | MIC [2] | MIC [5] | MIC [6] | MIC [8] | MIC [9] | MIC [10] | further results |
| --- | --- | --- | --- | --- | --- | --- | --- |
| CC(C)[C@@H]1NC(=O)[C@H](CCCNC(=N)N)NC(=O)[C@H](CCCNC(=N)N)NC(=O)[C@H]([C@@H](C)O)NC(=O)[C@H](CC(N)=O)NC(=O)[C@H](CCCNC(=N)N)NC(=O)[C@@H](NC(=O)[C@@H](NC(=O)[C@H](CCCNC(=N)N)NC(=O)[C@@H](N)CCCNC(=N)N)C(C)C)CSSC[C@@H](C(=O)N[C@@H](CCCNC(=N)N)C(=O)N[C@@H](CC(N)=O)C(=O)N[C@H](C(N)=O)[C@@H](C)O)NC1=O [F2-AH] (H-RRVCRNTRRVCRNT-NH2; disulfide 4-11; N-terminus assumed) | 29 µg/mL (≈ 16.2 µM) | 15 µg/mL (≈ 8.39 µM) | 15 µg/mL (≈ 8.39 µM) | 29 µg/mL (≈ 16.2 µM) | 29 µg/mL (≈ 16.2 µM) | 58 µg/mL (≈ 32.5 µM) | MIC [1]: 15 µg/mL (≈ 8.39 µM); MIC ([3]; murium): 15 µg/mL (≈ 8.39 µM); MIC [4]: 29 µg/mL (≈ 16.2 µM); MIC [7]: 15 µg/mL (≈ 8.39 µM) |
| CC[C@H](C)[C@H](NC(=O)CN)C(=O)NCC(=O)N[C@@H](C)C(=O)N[C@H](C(=O)N[C@@H](CC(C)C)C(=O)N[C@@H](CCCCN)C(=O)N[C@H](C(=O)N[C@@H](CC(C)C)C(=O)N[C@H](C(=O)N[C@H](C(=O)NCC(=O)N[C@@H](CC(C)C)C(=O)N1CCC[C@H]1C(=O)N[C@@H](C)C(=O)N[C@@H](CC(C)C)C(=O)N[C@H](C(=O)N[C@@H](CO)C(=O)N[C@@H](Cc1c[nH]c2ccccc12)C(=O)N[C@H](C(=O)N[C@@H](CCCCN)C(=O)N[C@@H](CCCNC(=N)N)C(=O)N[C@@H](CCCCN)C(=O)N[C@@H](CCCNC(=N)N)C(=O)N[C@@H](CCC(N)=O)C(=O)N[C@@H](CCC(N)=O)C(N)=O)[C@@H](C)CC)[C@@H](C)CC)[C@@H](C)O)[C@@H](C)O)C(C)C)C(C)C [Melittin] | – | – | – | – | – | – | cytoplasmic membrane depolarization (DiSC3-(5) fluorescence) [11]: complete depolarization; ONPG hydrolysis (absorbance at 405 nm) [12]: change in absorbance; SYTOX Green uptake (fluorescence intensity) [13]: significant increase in fluorescence intensity |
| IRLSRSTYAS-NH2 [F3] | >590 µg/mL | >590 µg/mL | > 590 µg/mL | – | – | – | – |
| Buforin-2 | – | – | – | – | – | – | cytoplasmic membrane depolarization (DiSC3-(5) fluorescence) [11]: failed to induce any change in membrane potential; ONPG hydrolysis (absorbance at 405 nm) [12]: did not alter the absorbance; SYTOX Green uptake (fluorescence intensity) [13]: did not show a similar increase in fluorescence intensity; peptide concentration giving DNA band retardation [14]: 2 µM |
| LRVRRTLQ-NH2 [F1] | >500 µg/mL | 67 µg/mL | – | – | – | – | – |
| RRVSRNT-NH2 [F2 (C15S)] | – | – | > 227 µg/mL | >114 µg/mL | >114 µg/mL | >114 µg/mL | MIC ([1]; Staphylococcus epidermidis, broth microdilution, MHB, 37 °C, triplicate): >227 µg/mL; MIC ([2]; Staphylococcus aureus, broth microdilution, MHB, 37 °C, triplicate): >227 µg/mL; MIC ([3]; Salmonella typhimurium, broth microdilution, MHB, 37 °C, triplicate): >227 µg/mL; MIC ([4]; Bacillus subtilis, broth microdilution, MHB, 37 °C, triplicate): >227 µg/mL; MIC ([5]; Escherichia coli, broth microdilution, MHB, 4 × 10^6 CFU/well, 37 °C, triplicate, no deviations): >227 µg/mL; MIC ([7]; Pseudomonas aeruginosa, broth microdilution, MHB, 37 °C, triplicate): >227 µg/mL; peptide concentration giving DNA band retardation [14]: > 16 µM |
| CC[C@H](C)[C@H](NC(=O)[C@@H]1CSSC[C@H](NC(=O)[C@H](CCC(N)=O)NC(=O)[C@@H](N)CC(C)C)C(=O)N[C@@H](CO)C(=O)N[C@H]2CSSC[C@H](NC(=O)[C@H]([C@@H](C)O)NC(=O)[C@H](CC(N)=O)NC(=O)[C@H](CCCNC(=N)N)NC(=O)[C@@H]3CSSC[C@H](NC(=O)[C@H](C(C)C)NC(=O)[C@H](CCCNC(=N)N)NC(=O)[C@H](CCCNC(=N)N)NC2=O)C(=O)N[C@@H](CCCNC(=N)N)C(=O)N[C@@H](CC(N)=O)C(=O)N[C@@H]([C@@H](C)O)C(=O)N[C@H]2CSSC[C@H](NC(=O)[C@H](CO)NC(=O)[C@@H](NC(=O)[C@H](CCC(N)=O)NC(=O)[C@@H](N)CC(C)C)CSSC[C@@H](C(=O)N[C@H](C(=O)N[C@@H](CCCNC(=N)N)C(N)=O)[C@@H](C)CC)NC(=O)[C@H](CO)NC2=O)C(=O)N[C@@H](CCCNC(=N)N)C(=O)N[C@@H](CCCNC(=N)N)C(=O)N[C@@H](C(C)C)C(=O)N3)C(=O)N[C@@H](CO)C(=O)N1)C(=O)N[C@@H](CCCNC(=N)N)C(N)=O [F4] (I: H-LQCSCRRVCRNTCSCIR-NH2 / II: H-LQCSCRRVCRNTCSCIR-NH2; disulfide I:3-II:15, I:5-II:13, I:9-II:9, I:13-II:5, I:15-II:3 (inferred); N-terminus assumed) | 64 µg/mL (≈ 16 µM) | 32 µg/mL (≈ 8.02 µM) | – | – | – | – | – |
| CC(C)[C@H](NC(=O)[C@@H]1CSSC[C@H](NC(=O)[C@@H](NC(=O)[C@H](CCCNC(=N)N)NC(=O)[C@@H](N)CCCNC(=N)N)C(C)C)C(=O)N[C@@H](CCCNC(=N)N)C(=O)N[C@@H](CC(N)=O)C(=O)N[C@@H]([C@@H](C)O)C(=O)N[C@@H]([C@@H](C)O)C(=O)N[C@@H](CC(N)=O)C(=O)N[C@@H](CCCNC(=N)N)C(=O)N1)C(=O)N[C@@H](CCCNC(=N)N)C(=O)N[C@@H](CCCNC(=N)N)C(N)=O [F2-PH] (H-RRVCRNTTNRCVRR-NH2; disulfide 4-11; N-terminus assumed) | 29 µg/mL (≈ 16.2 µM) | 15 µg/mL (≈ 8.39 µM) | 15 µg/mL (≈ 8.39 µM) | 58 µg/mL (≈ 32.5 µM) | 29 µg/mL (≈ 16.2 µM) | 29 µg/mL (≈ 16.2 µM) | MIC [1]: 15 µg/mL (≈ 8.39 µM); MIC ([3]; murium): 15 µg/mL (≈ 8.39 µM); MIC [4]: 29 µg/mL (≈ 16.2 µM); MIC [7]: 15 µg/mL (≈ 8.39 µM) |
